Results published in patent US20260250630A1, “PROTEOMICS-BASED RECEPTOR-LIGAND MATCHING FOR OPTIMIZING STEM CELL REPROGRAMMING” (OKINAWA INSTITUTE OF SCIENCE AND TECHNOLOGY SCHOOL …, priority 2021, published 2026).
“Also recorded” adds a separate entry of the source.

Legend:
[1] = system: calyx of Held presynaptic terminals; test: Membrane capacitance measurement of exo-endocytosis at the calyx of Held; format: cell-based, rat; conditions: LP-935509 1 or 10 µM in presynaptic terminals
Description: (§1) Wistar rats (postnatal day 13-15) of either sex were killed by decapitation under isoflurane anesthesia. Transverse brainstem slices (175-200 μm in thickness) containing the medial nucleus of the trapezoid body (MNTB) were cut in ice-cold solution containing (in mM): 200 sucrose, 2.5 KCl, 26 NaHCO3, 1.25 NaH2PO4, 6 MgCl2, 10 glucose, 3 myo-inositol, 2 sodium pyruvate, and 0.5 sodium ascorbate (pH 7.4 when bubbled with 95% O2 and 5% CO2, 310-320 mOsm) by using vibroslicer (VT1200S, Leica). Before recording, slices were incubated for 1 h at 37° C. in standard aCSF solution containing (in mM): 125 NaCl, 2 KCl, 26 NaHCO3, 1.25 NaH2PO4, 2 CaCl2), 1 MgCl2, 10 glucose, 3 myo-inositol, 2 sodium pyruvate, and 0.5 sodium ascorbate (pH 7.4 when bubbled with 95% O2 and 5% CO2, 310-320 mOsm), and maintained thereafter at room temperature (24-26° C.). MNTB principal neurons and calyx of Held presynaptic terminals were visually identified using a ×40 water immersion objective attached to an upright microscope (BX51WI, Olympus).
Membrane capacitance measurement from the calyx of Held presynaptic terminals, in whole-cell configurations, were made at room temperature (RT, 26-27° C.). Data were acquired at a sampling rate of 50 KHz, using an EPC-10 patch-clamp amplifier controlled by PatchMaster software (HEKA) after on-line filtering at 5 KHz. Calyx of Held terminals were voltage-clamped at a holding potential of −80 mV and a sinusoidal voltage command with a peak-to-peak voltage of 60 mV was applied at 1 KHz. Aak1 inhibitor LP935509 (Axon MedChem) was dissolved in DMSO (0.1%), which was also included in pipette solution, and infused from whole-cell pipettes into calyceal terminals by diffusion. […]
Single-pulse step depolarization to +10 mV for 20 ms was used to induce presynaptic QCa. […] The amplitude of exocytic Cm change (ΔCm) was measured as the difference of Cm values between the baseline and those at 450-500 ms after depolarization. […] The half decay time of endocytosis was measured from the midpoint of ΔCm decay.

calyx of Held = test: Simultaneous pre- and postsynaptic action potential recordings, fidelity of neurotransmission; format: cell-based, rat; conditions: p<0.01, n=6
Description: as §1
For recording postsynaptic action potentials (APs), simultaneous pre- and postsynaptic whole-cell recordings were made from calyceal terminals and postsynaptic MNTB principal neurons, both in current-clamp mode, in the presence of bicuculline methiodide (10 µM) and strychnine hydrochloride (0.5 μM). […]

[2] = system: calyx of Held presynaptic terminals; test: EPSC recording at the calyx of Held, short-term depression and recovery; format: cell-based, rat
Description: as §1
For recording of evoked EPSCs, simultaneous pre- and postsynaptic whole-cell recordings were made from a calyceal nerve terminal and postsynaptic cell. Throughout the experiments, presynaptic recordings were made in current-clamp mode, whereas postsynaptic recordings were made in voltage-clamp mode at a holding potential of −70 mV. Pipette solution for recording of presynaptic action potentials (APs) contained (mM): 110 K-gluconate, 10 L-glutamate, 30 KCl, 10 HEPES, 0.5 EGTA, 12 Na2-phosphocreatine, 3 MgATP, 1 MgCl2, 0.3 Na2GTP (315 mOsm, pH 7.3 adjusted with KOH), and that for postsynaptic recording contained (mM): 110 CsF, 30 CsCl, 10 HEPES, 5 EGTA, 1 MgCl2, 5 QX314-CI (300 mOsm, pH 7.3 adjusted with CsOH). EPSCs were evoked by current injection (0.5-1 nA, 1 ms) into the presynaptic terminal via a recording glass electrode, in the presence of bicuculline methiodide (10 µM) and strychnine hydrochloride (0.5 μM).

[3] = system: human ipsc-derived neurons (iN); test: Spontaneous synaptic currents in iPSC-derived neurons (iN); format: cell-based; conditions: addition of CNQX
Description: FIG. 14A-14E. The differentiated neurons (iN) in culture are making functional synapses. • A) DIC image of human ipsc-derived neurons (iN) in culture of DIV25.

[4] = from cumulative histograms of EPSC amplitudes

Structure (SMILES) | exocytosis (exocytic capacitance change, ΔCm) [1] | presynaptic Ca2+ current charge (QCa) [1] | endocytic capacitance change ([1]; p<0.05, n=6) | transmission fidelity (output/input AP ratio), level declined to (calyx of Held; 1 μM in presynaptic terminals, 100-Hz stimulation, within 40 s) | fidelity of neurotransmission (ratio of postsynaptic APs to presynaptic APs) (calyx of Held; 1 μM) | recovery from STD (time constants of Ca2+-dependent fast and Ca2+-independent slow components) ([2]; calyx of Held) | short-term depression (STD) of EPSCs ([2]; calyx of Held loaded with LP-935509, 100 Hz train, 0.3 s, compared to controls, p<0.05, n=7) | pool size of readily releasable SVs [2, 4] | release probability [2, 4] | spontaneous synaptic currents in iN [3]
COc1ncccc1-c1cnn2ccc(N3CCN(C(=O)OC(C)C)CC3)nc12 [LP-935509] | did not indicate a significant reduction; also recorded: remained unchanged | remained unchanged | significantly prolonged | ~ 50% | significantly impaired | significantly prolonged | stronger STD | reduced | without affecting | 
N#Cc1cc2[nH]c(=O)c(=O)[nH]c2cc1[N+](=O)[O-] [CNQX] |  |  |  |  |  |  |  |  |  | abolished
